The target in this assay is T1, sarcosine oxidase (Bacillus sp., UniProt P40859).
T1 sequence (P40859 1-390): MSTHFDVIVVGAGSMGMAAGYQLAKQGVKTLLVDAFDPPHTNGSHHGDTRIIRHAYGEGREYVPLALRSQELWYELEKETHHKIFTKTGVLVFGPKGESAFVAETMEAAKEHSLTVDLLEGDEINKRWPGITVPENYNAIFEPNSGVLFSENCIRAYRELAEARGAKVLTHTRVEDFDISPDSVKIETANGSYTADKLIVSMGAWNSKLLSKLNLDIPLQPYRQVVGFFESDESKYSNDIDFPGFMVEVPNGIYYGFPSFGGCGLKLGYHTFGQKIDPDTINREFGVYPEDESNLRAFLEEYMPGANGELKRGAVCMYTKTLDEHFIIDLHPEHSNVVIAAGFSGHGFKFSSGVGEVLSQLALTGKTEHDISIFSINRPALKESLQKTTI
The assay is described as follows: sarcosine oxidase activity on substrate at various pH (rate of change in absorbance per minute). Type of assay: biochemical. The note with it: for Ratio (B/A): rate with N-ethyl glycine divided by rate with sarcosine. How it is done: Separate assays at various pH were conducted to determine the rate of change in absorbance per minute (ΔA/min) for sarcosine oxidase activity on its substrate sarcosine, and on N-ethyl glycine. The assay is based on the following reactions. [drawing 1]

For the compound `CNCC(=O)O` [Sarcosine, sarcosine], the “rate of change in absorbance per minute (ΔA/min) for sarcosine oxidase activity” value reads like this: (pH 6.5) 1.56 ΔA/min; (pH 7.0) 2.20 ΔA/min; (pH 7.5) 2.76 ΔA/min.
Consider `CCNCC(=O)O` [N-Ethyl Glycine, N-ethyl glycine], for which the “rate of change in absorbance per minute (ΔA/min) for sarcosine oxidase activity” value runs as follows: (pH 6.5) 0.017 ΔA/min; (pH 7.0) 0.053 ΔA/min; (pH 7.5) 0.134 ΔA/min. For the same compound, the “Ratio (B/A)” value (pH 6.5) came to 0.011, the “Ratio (B/A)” value (pH 7.0) was 0.024 and the “Ratio (B/A)” value (pH 7.5) is reported as 0.048.
